The source of these data is US5356911A, “Substituted biphenylpyridones” (Bayer Aktiengesellschaft, priority 1991, dated 1994).

Where a name gives a salt, the structure may show the parent alone.

The test system of one experiment is contraction of the isolated rabbit aorta induced by angiotensin II. Briefly: Inhibition of the angiotensin II-induced vascular contraction of isolated rabbit aorta rings in vitro. The format is cell-based. To be noted: Oryctolagus cuniculus; isolated aorta rings of rabbits in vitro; based on 3rd = sub-maximal agonist concentration; read-out: IC50 for contractions induced by AII. Here is the method:
Investigation of the Inhibition of the Contraction Induced by Agonists
Rabbits of both sexes are stunned by a blow to the neck and bled out, or in some cases anaesthetised with Nembutal (about 60-80 mg/kg i.v.) and sacrificed by opening the thorax. The thorax aorta is removed, freed of adhering connective tissue, divided into 1.5 mm wide ring segments and individually transferred under an initial loading of about 3.5 g to 10 ml organ baths containing 95% O2, 5% CO2 -aerated Krebs-Henseleit nutrient solution adjusted to 37° C. and of the following composition: 119 mmol/l of NaCl; 2.5 mmol/l of CaCl2 ×2H2 O; 1.2 mmol/l of KH2 PO4; 10 mmol/l of glucose; 4.8 mmol/l of KCl; 1.4 mmol/l of MgSO4 ×7 H2 O and 25 mmol/l of NaHCO3.
The contractions are detected isometrically by Statham UC2 cells by means of bridge amplifiers (ifd Mulheim or DSM Aalen) and digitalised and analysed by means of an A/D converter (System 570, Keithley Munich). The agonist dose-response curves (DRC) are carried out hourly. With each DRC, 3 or 4 individual concentrations are applied to the baths at 4 min intervals. After the end of the DRC and subsequent washing-out cycles (16 times, in each case about 5 sec/min with the abovementioned nutrient solution), a 28-minute resting or incubation phase follows, in the course of which the contractions as a rule reach the starting value again.
The height of the 3rd DRC, in the normal case, is used as a reference quantity for the assessment of the test substance to be investigated in other passages, which is applied to the baths in the following DRCs in increasing dosage in each case at the start of the incubation time. Each aorta ring is in this way stimulated for the whole day, always with the same agonist.
For the calculation of the IC50 (concentration at which the substance to be investigated causes a 50% inhibition), the effect is in each case based on the 3rd=sub-maximal agonist concentration.
rings of rabbits in vitro
IC50 (g/ml) for contractions induced by: AII
For `CCCCc1cc(C(=O)O)cc(=O)n1Cc1ccc(-c2ccccc2-c2nnn[nH]2)cc1` [Example XCII, 6-Butyl-4-carboxy-2-oxo-1[(2'-tetrazol-5-yl-biphenyl-4-yl)methyl-1,2-dihydropyridinedisodium salt], the IC50 (in general, the concentration at which inhibition is half-maximal) was 0.12 µM.

In the case of `CCCCc1cc(CO)cc(=O)n1Cc1ccc(-c2ccccc2-c2nnn[nH]2)cc1` [LIV], the IC50 came out at 0.013 µM.

In the case of `CCCc1cc(C(=O)OC)cc(=O)n1Cc1ccc(-c2ccccc2-c2nnn[nH]2)cc1` [LXXVIII], the IC50 stood at 0.034 µM.

On to `CCCCc1cc(C(=O)OCc2ccccc2)cc(=O)n1Cc1ccc(-c2ccccc2-c2nnn[nH]2)cc1` [XLIII], for which the IC50 is 0.039 µM.

`CCCCc1cc(C(N)=O)cc(=O)n1Cc1ccc(-c2ccccc2-c2nnn[nH]2)cc1` [XLV]: the IC50 turned out to be 0.0037 µM.

Consider `CCCCc1cccc(=O)n1Cc1ccc(-c2ccccc2-c2nnn[nH]2)cc1` [XXXIII], for which the IC50 was found to be 0.0073 µM.

For a further experiment, the target named is T1, Angiotensin II receptor (Bos taurus, UniProt P25104).
T1 construct: Adrenal cortices of cattle (ACC), which have been freshly removed and carefully freed of gland medulla; from tissue; host or cells: bovine adrenal cortex, partially purified membrane fractions
T1 sequence (P25104 1-359): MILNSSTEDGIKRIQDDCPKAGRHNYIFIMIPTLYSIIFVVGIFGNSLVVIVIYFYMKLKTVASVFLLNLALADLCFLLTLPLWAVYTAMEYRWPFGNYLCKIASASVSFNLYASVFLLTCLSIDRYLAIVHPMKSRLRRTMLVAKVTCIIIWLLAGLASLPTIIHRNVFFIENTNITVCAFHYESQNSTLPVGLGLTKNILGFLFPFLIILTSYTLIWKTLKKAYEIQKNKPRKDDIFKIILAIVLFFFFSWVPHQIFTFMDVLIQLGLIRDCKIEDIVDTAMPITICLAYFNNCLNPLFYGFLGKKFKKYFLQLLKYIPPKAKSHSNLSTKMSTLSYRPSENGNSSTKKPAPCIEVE
In words: Inhibition of specific binding of 3H-angiotensin II to the angiotensin II receptor on membrane fractions of the adrenal cortex. On the set-up: species or system cattle (bovine). The conditions noted are these: 3H-angiotensin II (3-5 nM), bovine adrenal cortex membranes, 60 min, room temperature. From the text:
Interaction of the Compounds According to the Invention With the Angiotensin II Receptor on Membrane Fractions of the Adrenal Cortex (Cattle)
Adrenal cortices of cattle (ACC), which have been freshly removed and carefully freed of gland medulla, are comminuted in sucrose solution (0.32M) with the aid of an Ultra-Turrax (Janke & Kunkel, Staufen i.B.) to give a coarse membrane homogenate and partially purified in two centrifugation steps to give membrane fractions. The investigations of receptor binding were carried out on partially purified membrane fractions of bovine ACC using radioactive angiotensin II in an assay volume of 0.25 ml, which in detail contains the partially purified membranes (50-80 μg), ^3 H-angiotensin II (3-5 nM), test buffer solution (50 mM tris, pH 7.2, 5 mM MgCl2 and the substances to be investigated. After an incubation time of 60 min at room temperature, the unbound radioactivity of the samples is separated by means of moistened glass fibre filters (Whatman GF/C) and the bound radioactivity is measured spectrophotometrically in a scintillation cocktail after washing the protein with ice-cold buffer solution (50 mM tris/HCl, pH 7.4, 5% PEG 6000). The analysis of the raw data was carried out using computer programs to give Ki and IC50 values (Ki: IC50 values corrected for the radioactivity used; IC50 values: concentration at which the substance to be investigated causes a 50% inhibition of the specific binding of the radioligand).
Take `CCCc1cc(C(N)=O)cc(=O)n1Cc1ccc(-c2ccccc2-c2nnn[nH]2)cc1` [Example LVI]: the Ki (as a rule, a dissociation constant, usually derived from enzyme kinetics or from competition with a known ligand) is 0.009 µM.

Turning to `CCCCc1cc(COC)cc(=O)n1Cc1ccc(-c2ccccc2-c2nnn[nH]2)cc1` [Example LV], affinity was put at a Ki of 0.015 µM.

As for `CCCCc1cc(COC)cc(=O)n1Cc1ccc(-c2ccccc2-c2nnn[nH]2)cc1` [LXXXII], the inhibition constant Ki stood at 0.079 µM.

`N#Cc1c(C(=O)O)cc(C2CC2)n(Cc2ccc(-c3ccccc3-c3nnn[nH]3)cc2)c1=O` [XCIV] yielded a Ki of 0.042 µM.

With `CCCCc1cc(C(=O)OCC)c(C#N)c(=O)n1Cc1ccc(-c2ccccc2-c2nnn[nH]2)cc1` [XLVII], the inhibition constant Ki was 0.22 µM.

`CCc1cc(CC)n(Cc2ccc(-c3ccccc3-c3nnn[nH]3)cc2)c(=O)c1C#N` [XXXIV]: the Ki is above 10 µM.

For a further experiment, the system named is Angiotensin II-Infused Rat. In words: Blood pressure measurements on the angiotensin II-infused rat. The class given is in vivo, Male Wistar rats. The conditions noted are these: 0.3 mg/kg p.o.; angiotensin II infusion 0.3 μg/kg/min; anaesthetised rats. How it is done: Blood Pressure Measurements on the Angiotensin II-Infused Rat
Male Wistar rats (Moellegaard, Copenhagen, Denmark) having a body weight of 300-350 g are anaesthetised with thiopental (100 mg/kg i.p.). After tracheotomy, one catheter is inserted in the femoral artery for blood pressure measurement and one catheter is inserted in the femoral veins for angiotensin II infusion and one catheter for substance administration. After administration of the ganglionic blocker pentolinium (5 mg/kg i.v.), angiotensin II infusion (0.3 μg/kg/min) is started. As soon as the blood pressure values have reached a stable plateau, the test substances are administered either intravenously or orally as a suspension or solution in 0.5% tylose.
In turn, “6-Butyl-4-methoxycarbonyl-2-oxo-1-{[2'-(N-triphenylmethyl-tetrazol-5-yl)biphenyl-4-yl]methyl}-1,2-dihydropyridine [Example I]” registered a Blood pressure decrease above 50 mm Hg.
